Results: publication PMC3072374, “Evolution of Vertebrate Transient Receptor Potential Vanilloid 3 Channels: Opposite Temperature Sensitivity between Mammals and Western Clawed Frogs” (PLoS Genetics, 2011)

How the values were obtained:
[1] = biological target: T1, western clawed frog TRPV3 (Xenopus tropicalis, UniProt A0A7D9NMJ5); assay: two-electrode voltage clamp in Xenopus laevis oocytes, dose-response; assay type: cell-based
T1 construct: full-length native channel, 773 residues, cDNA cloned from toe RNA into pGEMHE; cRNA injected into Xenopus laevis oocytes; homotetramer (known biology)
T1 sequence (A0A7D9NMJ5 1-773): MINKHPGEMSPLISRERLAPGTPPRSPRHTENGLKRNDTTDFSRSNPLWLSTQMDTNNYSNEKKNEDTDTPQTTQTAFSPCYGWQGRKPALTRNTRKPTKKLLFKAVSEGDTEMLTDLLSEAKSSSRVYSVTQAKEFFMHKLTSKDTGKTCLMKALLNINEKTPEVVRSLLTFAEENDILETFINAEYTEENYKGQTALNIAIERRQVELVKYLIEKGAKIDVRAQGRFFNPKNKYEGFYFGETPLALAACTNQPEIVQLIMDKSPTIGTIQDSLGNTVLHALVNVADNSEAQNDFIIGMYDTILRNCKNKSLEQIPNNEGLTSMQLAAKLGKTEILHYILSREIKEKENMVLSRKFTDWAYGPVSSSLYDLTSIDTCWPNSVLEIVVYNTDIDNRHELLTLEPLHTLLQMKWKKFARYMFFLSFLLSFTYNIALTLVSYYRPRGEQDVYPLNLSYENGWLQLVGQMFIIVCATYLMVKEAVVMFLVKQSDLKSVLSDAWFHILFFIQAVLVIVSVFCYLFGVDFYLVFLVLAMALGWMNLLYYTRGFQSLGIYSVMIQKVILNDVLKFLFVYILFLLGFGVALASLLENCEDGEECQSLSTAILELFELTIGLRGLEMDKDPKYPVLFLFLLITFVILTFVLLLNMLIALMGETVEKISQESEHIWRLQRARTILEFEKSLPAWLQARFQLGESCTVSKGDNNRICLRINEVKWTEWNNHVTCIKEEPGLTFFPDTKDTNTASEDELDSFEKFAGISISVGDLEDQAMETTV

[2] = biological target: T2, mouse TRPV3 (Mus musculus, UniProt Q8K424); assay: two-electrode voltage clamp in Xenopus laevis oocytes; assay type: cell-based; settings: agonist
T2 construct: full-length channel from pcDNA3 subcloned into pOX+; cRNA injected into Xenopus laevis oocytes; homotetramer (known biology)
T2 sequence (Q8K424 1-791): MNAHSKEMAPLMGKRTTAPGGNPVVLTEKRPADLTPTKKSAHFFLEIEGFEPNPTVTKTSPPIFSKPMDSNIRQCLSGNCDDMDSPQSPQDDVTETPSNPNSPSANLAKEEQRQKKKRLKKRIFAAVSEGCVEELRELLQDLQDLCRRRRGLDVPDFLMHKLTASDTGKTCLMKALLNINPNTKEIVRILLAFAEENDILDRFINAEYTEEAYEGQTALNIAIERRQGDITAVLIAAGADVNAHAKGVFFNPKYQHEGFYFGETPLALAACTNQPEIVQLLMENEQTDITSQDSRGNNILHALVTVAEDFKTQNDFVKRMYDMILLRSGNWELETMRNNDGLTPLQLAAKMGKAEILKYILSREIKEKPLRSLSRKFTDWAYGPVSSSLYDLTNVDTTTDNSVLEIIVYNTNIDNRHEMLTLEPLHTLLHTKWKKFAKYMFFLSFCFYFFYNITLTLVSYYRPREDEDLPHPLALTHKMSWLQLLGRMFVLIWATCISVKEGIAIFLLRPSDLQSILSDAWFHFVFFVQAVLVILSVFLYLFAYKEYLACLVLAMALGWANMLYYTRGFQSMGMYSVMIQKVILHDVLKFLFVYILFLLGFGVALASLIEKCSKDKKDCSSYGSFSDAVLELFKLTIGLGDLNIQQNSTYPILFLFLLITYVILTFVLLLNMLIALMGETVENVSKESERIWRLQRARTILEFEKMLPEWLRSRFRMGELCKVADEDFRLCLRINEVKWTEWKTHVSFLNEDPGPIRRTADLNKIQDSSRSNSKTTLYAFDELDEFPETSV

For `NCCOB(c1ccccc1)c1ccccc1` [2-APB], the EC50 [1] was 540 ± 240 µM.

For `CC12CCC(CC1=O)C2(C)C` (stereo not drawn) [camphor], the activation ([2]; 8 mM camphor) was “well known activators of mammalian TRPV3 (Figure 5F and 5G, Right)”.

`CC12CCC(CC1)C(C)(C)O2` [eucalyptol] was tested, and the activation ([2]; 10 mM eucalyptol) was “well known activators of mammalian TRPV3 (Figure 5F and 5G, Right)”.
